Data set [1] has as its system Plasmodium berghei. The data set is described as follows: Antimalarial activity against Plasmodium berghei NK65 infected in mice (Mus musculus) assessed as increase of mice (Mus musculus) survival days at 40 mg/kg, subcutaneous daily for 3 days measured up to 18 months. Format: functional, organism-based. On the set-up: dose 40 mg/kg.
Data set [2] in a line: Drug uptake in blood stage of Plasmodium berghei NK65 infected ICR mice (Mus musculus) RBCs at 0.25 uM after 20 min using Rhodamine 123 by fluorescence microscopy. As to conditions: erythrocyte. Format: ADME, tissue-based.
Data set [3] deals with Plasmodium berghei. Briefly: Effect on multidrug resistance protein-mediated Rhodamine 123 drug uptake in blood stage of Plasmodium berghei NK65 mitochondria infected ICR mice (Mus musculus) RBCs at 10 nM after 20 min by fluorescence microscopy.
For data set [4], the system named is Plasmodium berghei. The data set is described as follows: Drug uptake in early trophozoite stage of Plasmodium berghei NK65 infected in ICR mice (Mus musculus) RBCs at 10 nM after 20 min using Rhodamine 123 by fluorescence microscopy. The note with it: in vivo, 0.01 µM. Format: ADME, organism-based.
In data set [5] the test system is Plasmodium berghei. Briefly: Antimalarial activity against Plasmodium berghei NK65 infected in mice (Mus musculus) assessed as reduction of parasitaemia at 40 mg/kg, subcutaneous after 23 hrs (reference value: 8.2 to 25.3 %). Format: functional. The arrangement: scale not given: the % may be the effect or the level left.
In data set [6] the test system is Plasmodium berghei. The data set is described as follows: Drug uptake in schizont stage of Plasmodium berghei NK65 infected in ICR mice (Mus musculus) RBCs at 10 nM after 20 min using Rhodamine 123 by fluorescence microscopy. Type of data set: ADME, organism-based. The note with it: in vivo, 0.01 µM.
Data set [7] in a line: Drug uptake in blood stage of Plasmodium berghei NK65 mitochondria infected ICR mice (Mus musculus) RBCs at 0.25 uM after 20 min using Rhodamine 123 by fluorescence microscopy. Format: ADME.
Data set [8] deals with Plasmodium berghei. The data set is described as follows: Drug uptake in ring stage of Plasmodium berghei NK65 infected in ICR mice (Mus musculus) RBCs at 10 nM after 20 min using Rhodamine 123 by fluorescence microscopy. Format: ADME, organism-based. The note with it: in vivo, 0.01 µM.
Data set [9] concerns Plasmodium berghei. The data set is described as follows: Antimalarial activity against Plasmodium berghei NK65 infected in mice (Mus musculus) assessed as reduction of parasitaemia at 40 mg/kg, subcutaneous daily for 3 days. Format: functional. The arrangement: scale not given: the % may be the effect or the level left.
The test system of another data set is Mus musculus. The data set is described as follows: Drug uptake in Plasmodium berghei NK65 infected ICR mice (Mus musculus) RBCs at 40 mg/kg, subcutaneously qd for 3 days after 23 hrs. Type of data set: ADME, organism-based. On the set-up: dose 40 mg/kg, route subcutaneous. The note with it: in vivo, sc.
Data set [10] can be described thus: Drug uptake in blood stage of Plasmodium berghei NK65 nucleus infected ICR mice (Mus musculus) RBCs at 0.25 uM after 20 min using Rhodamine 123 by fluorescence microscopy. Format: ADME, tissue-based.
The subject of data set [11] is Plasmodium berghei. Briefly: Drug uptake in late trophozoite stage of Plasmodium berghei NK65 infected in ICR mice (Mus musculus) RBCs at 10 nM after 20 min using Rhodamine 123 by fluorescence microscopy. Format: ADME, organism-based. The note with it: in vivo, 0.01 µM.
The test system of data set [12] is Plasmodium berghei. The data set is described as follows: Effect on multidrug resistance protein-mediated Rhodamine 123 drug uptake in blood stage of Plasmodium berghei NK65 mitochondria infected ICR mice (Mus musculus) RBCs at 10 uM after 20 min by fluorescence microscopy.

Active and inactive are the calls of the source. The rule behind the calls is not given here.

The record followed here is ChEMBL document CHEMBL1287693, “Selective accumulation of a novel antimalarial rhodacyanine derivative, SSJ-127, in an organelle of Plasmodium berghei” (Bioorg Med Chem, 2010).

On to `CCn1c(=O)/c(=C/C=c2\nc3c(o2)=CC=CN3C)s/c1=C\c1sc2ccccc2[n+]1C.[Cl-]`, for which the outcome in the data set on Plasmodium berghei [1] was Active. Also, the Drug uptake entry (in data set [2]; with Plasmodium berghei [4]; in the data set with Plasmodium berghei [6]; in data set [7]; in the data set with Plasmodium berghei [8]; in the data set on Mus musculus) was “Active” throughout. Also, the Drug uptake entry (in data set [10]; in the data set on Plasmodium berghei [11]) was “Active” throughout. In the data set with Plasmodium berghei [3], the Drug uptake result is “Active”. For the same compound, the Activity came out at 10.8% in the data set on Plasmodium berghei [5] and 100% with Plasmodium berghei [9].
In the case of `CCCCCC[C@H]1C(=O)O[C@H](C)[C@H](NC(=O)c2cccc(NC=O)c2O)C(=O)O[C@@H](C)[C@@H]1OC(=O)CC(C)C`, the Drug uptake result with Plasmodium berghei [12] was “inactive”.
Still for that read-out and setting: the entry for `N#CC(C#N)=NNc1cccc(Cl)c1` is “inactive”.
